Source: patent publication US20220118104A1, “COMPOUNDS COMPRISING CLEAVABLE LINKER AND USES THEREOF” (IntoCell, Inc., priority 2019, published 2022)

Key:
[1] = biological target: T1, E. coli β-galactosidase (Escherichia coli, UniProt P00722); assay: in vitro; type: biochemical; conditions: PBS pH 7.4, 37° C., HPLC, read-out: TG release t1/2(min)
T1 construct: purchased Sigma G4155
Protocol: Compound A-1, A-2, or B-1 was dissolved in DMSO and mixed with PBS buffer solution to prepare 500 μM stock solution (1% DMSO). Methyl phenyl sulfone (MPS, CAS Number 3112-85-4, internal standard) was dissolved in PBS buffer solution to make 500 μM solution. 790 μL of PBS buffer (pH 7.4), 10 μL of the solution of compound A-1, A-2, or B-1 (500 μM) and 200 μL of MPS solution (500 μM) were mixed. Enzyme solution (E. coli β-galactosidase, Sigma G4155, 18 μL of 1 mg/mL) was added to 882 μL of the reaction mixture. When comparing with human p-galactosidase, 116 μL of the enzyme solution (0.1 mg/mL) was added, and solutions of compound A-1, A-2, or B-1 (140 μL), MPS (140 μL), and the buffer solution (533 μL, pH 7.4) were mixed.
The reaction mixture was incubated at 37° C. The enzyme reaction solution was aliquoted at 0 min before the reaction and at a predetermined time after the reaction, wherein each aliquot was 70 μL. The remaining compound A-1, A-2, or B-1, MPS, and the material liberated by the enzyme reaction were quantitatively analyzed by HPLC.

[2] = test system: SK-BR3 cancer cells; assay: Cell cytotoxicity of conjugates (MTT), SK-BR3; type: cell-based; conditions: SK-BR3, 72 hours of incubation
Protocol: (§1) NCI-N87, SK-BR3 cancer cells were seeded in 96-well plates at a density of 5,000 cells per well in 100 μL of medium, and cultured for 24 hours. The eight compounds obtained in Example 55 and T-DM1 were treated by serial dilutions of 1:5 from 50 nM to 0.000128 nM. After 72 hours of incubation, 0.2 mL of 3-(4,5-dimethylthiazol-2-yl)-2,5-diphenyltetrazolium bromide (MTT) dye, dissolved in PBS buffer solution (5 mg/mL), was added to each well of the plates. The formazans formed by reduction of the MTT dye by mitochondrial oxidoreductases in the living cells were dissolved in DMSO, and measured using the absorbance at 550 nm.

[3] = test system: NCI-N87 cancer cells; assay: Cell cytotoxicity of conjugates (MTT), NCI-N87; type: cell-based; conditions: NCI-N87, 72 hours of incubation
Protocol: as §1

T1 sequence (P00722 2-1024): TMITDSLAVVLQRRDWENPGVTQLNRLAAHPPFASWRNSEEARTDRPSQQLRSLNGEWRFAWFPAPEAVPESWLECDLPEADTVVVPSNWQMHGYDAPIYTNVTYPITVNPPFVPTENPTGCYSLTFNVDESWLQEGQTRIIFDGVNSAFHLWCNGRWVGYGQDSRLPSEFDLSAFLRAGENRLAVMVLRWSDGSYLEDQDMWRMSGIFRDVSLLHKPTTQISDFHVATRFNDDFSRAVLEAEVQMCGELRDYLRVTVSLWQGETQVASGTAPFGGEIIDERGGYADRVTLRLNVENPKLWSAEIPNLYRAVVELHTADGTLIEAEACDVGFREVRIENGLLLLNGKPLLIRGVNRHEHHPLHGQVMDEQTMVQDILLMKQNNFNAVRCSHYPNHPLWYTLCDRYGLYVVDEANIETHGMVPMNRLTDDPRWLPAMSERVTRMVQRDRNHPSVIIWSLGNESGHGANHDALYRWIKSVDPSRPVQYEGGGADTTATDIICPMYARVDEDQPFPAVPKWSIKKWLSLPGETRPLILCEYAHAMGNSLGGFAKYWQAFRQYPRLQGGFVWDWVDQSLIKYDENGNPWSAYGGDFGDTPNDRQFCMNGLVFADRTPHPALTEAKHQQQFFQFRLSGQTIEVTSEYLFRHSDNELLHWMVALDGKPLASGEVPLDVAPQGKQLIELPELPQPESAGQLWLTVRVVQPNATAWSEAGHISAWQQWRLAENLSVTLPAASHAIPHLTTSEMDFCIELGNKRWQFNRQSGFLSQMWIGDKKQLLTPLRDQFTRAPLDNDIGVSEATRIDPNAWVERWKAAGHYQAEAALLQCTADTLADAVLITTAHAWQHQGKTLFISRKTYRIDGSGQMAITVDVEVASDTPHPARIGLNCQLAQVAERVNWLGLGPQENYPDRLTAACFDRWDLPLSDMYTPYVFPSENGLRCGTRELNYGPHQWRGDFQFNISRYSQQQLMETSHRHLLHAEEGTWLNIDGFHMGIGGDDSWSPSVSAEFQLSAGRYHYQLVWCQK

Compound: CNC(=O)[C@H](Cc1ccc(OS(=O)(=O)Cc2ccc(OC3O[C@H](CO)[C@H](O)[C@H](O)[C@H]3O)cc2)cc1)NC(=O)OC(C)(C)C (some centres unmarked) [Compound A-1]
- half-life at 4.9 μM [1]: < 5 min

Compound: CNC(=O)[C@H](Cc1ccc(OS(=O)(=O)Cc2ccc(OC3O[C@H](CO)[C@H](O)[C@H](O)[C@H]3O)c(C(=O)NCCOCCOCCOCCN=[N+]=[N-])c2)cc1)NC(=O)OC(C)(C)C (some centres unmarked) [Compound A-2]
- half-life at 4.9 μM [1]: < 10 min

Compound: C[N+]1(Cc2ccc(OS(=O)(=O)Cc3ccc(OC4O[C@H](CO)[C@H](O)[C@H](O)[C@H]4O)cc3)cc2)CCCC[C@@H]1C(=O)Nc1ccccc1 (some centres unmarked) [Compound B-1]
- half-life at 4.9 μM [1]: < 5 min

Compound: T-DM1
- IC50 [2]: 0.042 nM
- IC50 [3]: 0.766 nM
